For data set [1], the system named is RARE-β-galactosidase (F9-RARE-β-galactosidase reporter cell line). Nature of the data set: Transcription of RARE-β-galactosidase in F9-RARE-β-galactosidase reporter cell line. It counts as cell-based. Conditions: Mus musculus; media lacking serum. On the procedure: Cells were treated with different concentrations of retinoids in media lacking serum, harvested and assayed for β-galactosidase activity. […] The β-galactosidase activity in this cell line reflects the activation of the RARs.

Data set [2] concerns RARs α, β, or γ. Conditions: Mangelsdorf et al (14); cited from earlier work.
Data set [3] relates to F9 stem cells. Conditions: refs (37), (38), cited from earlier work.
For the next data set, the system named is psoriatic arthritis. Kind of data set: Treatment of patients with psoriatic arthritis. It counts as in vivo, human. Conditions: oral, 50 mg/square meter per day.
For the next data set, the target named is T1, RAR-γ (Mus musculus, UniProt P18911).
T1 sequence (P18911 1-458): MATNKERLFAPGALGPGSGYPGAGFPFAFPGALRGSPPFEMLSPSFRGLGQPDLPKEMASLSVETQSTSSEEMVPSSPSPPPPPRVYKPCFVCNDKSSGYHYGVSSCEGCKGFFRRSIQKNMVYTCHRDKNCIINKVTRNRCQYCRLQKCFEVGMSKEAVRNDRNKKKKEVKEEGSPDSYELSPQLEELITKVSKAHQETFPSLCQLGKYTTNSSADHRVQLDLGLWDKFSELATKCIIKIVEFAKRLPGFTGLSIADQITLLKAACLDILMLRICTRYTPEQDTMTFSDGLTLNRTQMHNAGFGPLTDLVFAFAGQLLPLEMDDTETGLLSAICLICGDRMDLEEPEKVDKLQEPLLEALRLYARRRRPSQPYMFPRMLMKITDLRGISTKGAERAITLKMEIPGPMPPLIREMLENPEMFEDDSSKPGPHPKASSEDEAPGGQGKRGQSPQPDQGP
Nature of the data set: Competitive binding of 3H-all-trans-retinoic acid to RAR-γ.

Data set [4] deals with aging or photodamaged skin. Nature of the data set: Treatment of patients with aging or photodamaged skin. Type of data set: in vivo, human. Conditions: oral 100 mg/square meter per day or topical 10 mg per square inch per day, 4 to 8 months.
The subject of data set [5] is advanced head and neck cancer. Nature of the data set: Treatment of patients with advanced head and neck cancer. Type of data set: in vivo, human. Conditions: oral, 100 mg/square meter per day. The source says:
Current systemic chemotherapy regimens are unable to prolong survival of patients with advanced head and neck cancer.

The test system of another data set is Hoxa-1. Nature of the data set: Hoxa-1 gene expression in F9 stem cells by Northern blot. Type of data set: cell-based. Conditions: Mus musculus, F9, 72 h, read-out: Hoxa-1 transcripts induction. The source says: (§1) Teratocarcinoma stem cells can be induced to differentiate in monolayer culture by retinoic acid over a 3-4 day period into nonmalignant endoderm cells resembling the extraembryonic endoderm of the mouse blastocyst as described in Gudas, L. J., et al (27). The F9 teratocarcinoma stem cell line is used as a model tumor cell differentiation system because F9 stem cells share similar biochemical, immunological and morphological characteristics with early mouse embryonic stem cells and additionally, large numbers of cells can be cultured and experimentally manipulated. The expression of several homeobox genes including Hoxa-1 is induced by RA in mouse teratocarcinoma cell lines as described in LaRosa, G. J., et al (34) and LaRosa, G. J., et al (35). […] See LaRosa, G. L, et al (34). Other genes such as laminin B1 are activated subsequent to the activation of Hox 1.6 by retinoic acid as described in Vasios, G. W., et al (36).

The test system of the next data set is breast cancer. Kind of data set: Treatment of patients with breast cancer. Type of data set: in vivo, human. Conditions: oral, 100 mg/square meter per day.
Data set [6] has as its system F9 stem cells. Nature of the data set: Metabolism of 3H-4-hydroxyretinol in F9 cells (HPLC). It counts as in vitro ADME, mouse. Conditions: besides 4-oxo-retinol; 50 nM. On the procedure: (§2) ^3 H-4-hydroxyretinol and ^3 H-4-oxo-retinol were purified from RA treated, differentiated F9 cells (ATCC CRL 1720) after the differentiated cells were incubated with ^3 H-retinol for 18 h. The identities of purified ^3 H-4-hydroxyretinol and ^3 H-4-oxo-retinol were verified by matching both the elution times on the HPLC and the spectra of known standards.
(§3) F9 stem cells or retinoic acid-treated cells (72 h) were cultured in the presence of 50 nM of either ^3 H-4-hydroxyretinol or ^3 H-4-oxo-retinol for different periods of time.
(§4) FIGS. 4A-4D depict HPLC analysis after incubation in the presence of 50 nM ^3 H-4-hydroxyretinol for periods of time as indicated and extraction using the method described in McClean, S. W., et al (15). F9 stem cells are shown in FIGS. 4A-4D to convert 4-hydroxyretinol to 4-oxo-retinol. The rate of this conversion was virtually identical in both stem and retinoic acid-treated cells. This rate was calculated to be about 20% in a period of 15 h.

Experiment in data set [7]: as above
Conditions: mouse, f9 cells; 50 nM, 15 h; virtually identical in stem and retinoic acid-treated cells; read-out: conversion of 4-hydroxyretinol to 4-oxo-retinol. It counts as in vitro ADME, mouse. Here is the method:
as §2, §3, §4

In a further data set the test system is deep (cystic) acne. Nature of the data set: Treatment of patients with deep (cystic) acne. Type of data set: in vivo, human. Conditions: oral, 100 mg/square meter per day. The source says: A very prolonged remission, and potentially permanent cure can be obtained.
Data set [8] relates to cellular retinoic acid binding protein I (CRABP I). Nature of the data set: Inhibition of all-trans-3H-retinoic acid binding to CRABP I. Conditions: data not shown.
In a further data set the test system is RXRs α, β, or γ. Kind of data set: Inhibition of 3H-9-cis retinoic acid binding to RXRs. Set-up: species or system mouse. The source says: See Levin, A. A., et al (29).
The target of another data set is T2, RAR-α (Mus musculus, UniProt P11416).
T2 construct: expressed in transfected cells; host or cells: COS-1
T2 sequence (P11416 1-462): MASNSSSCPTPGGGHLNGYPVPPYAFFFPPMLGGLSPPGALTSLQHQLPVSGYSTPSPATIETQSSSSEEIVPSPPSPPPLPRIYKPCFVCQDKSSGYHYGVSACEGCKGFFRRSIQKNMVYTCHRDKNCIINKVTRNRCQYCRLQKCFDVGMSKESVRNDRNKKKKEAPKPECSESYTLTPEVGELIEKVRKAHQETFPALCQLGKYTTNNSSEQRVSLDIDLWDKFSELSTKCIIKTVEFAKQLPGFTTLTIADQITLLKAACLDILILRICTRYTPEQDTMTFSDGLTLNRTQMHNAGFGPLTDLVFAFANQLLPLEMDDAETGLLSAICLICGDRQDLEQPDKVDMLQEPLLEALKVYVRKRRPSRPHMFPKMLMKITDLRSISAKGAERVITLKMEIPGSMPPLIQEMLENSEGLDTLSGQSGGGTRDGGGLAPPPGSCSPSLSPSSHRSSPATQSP
Nature of the data set: Competitive binding of 3H-all-trans-retinoic acid to RAR-α. Conditions: concentration to inhibit 50% binding of 3H-all-trans-retinoic acid (10 nM); mean ± SD, at least 3 replicate experiments.

For another data set, the target named is T3, RAR-β (Mus musculus, UniProt P22605).
T3 sequence (P22605 1-448 isoform P22605-3): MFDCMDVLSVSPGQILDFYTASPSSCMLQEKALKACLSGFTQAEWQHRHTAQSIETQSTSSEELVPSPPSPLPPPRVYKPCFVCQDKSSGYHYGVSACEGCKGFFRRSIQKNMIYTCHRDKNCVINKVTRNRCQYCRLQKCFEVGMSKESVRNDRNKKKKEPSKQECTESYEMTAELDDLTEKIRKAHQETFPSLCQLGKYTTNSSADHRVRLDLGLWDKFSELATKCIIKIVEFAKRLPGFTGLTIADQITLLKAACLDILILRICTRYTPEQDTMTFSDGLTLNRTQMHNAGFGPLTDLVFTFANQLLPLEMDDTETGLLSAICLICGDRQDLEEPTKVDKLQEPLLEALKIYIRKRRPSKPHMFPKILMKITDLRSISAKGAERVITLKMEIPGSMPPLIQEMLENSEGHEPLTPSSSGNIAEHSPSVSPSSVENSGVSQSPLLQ
Kind of data set: Competitive binding of 3H-all-trans-retinoic acid to RAR-β.

A further data set concerns laminin B1. Nature of the data set: Laminin B1 gene expression in F9 stem cells by Northern blot. It counts as cell-based. Conditions: Mus musculus, F9, 72 h, read-out: Laminin B1 expression induction.
Excerpt: as §1

The subject of data set [9] is RARs α, β, or γ. Nature of the data set: Inhibition of 3H-all-trans-retinoic acid binding to RARs (stated for all subtypes together). Conditions: concentrations up to 50,000 nM.
Method: (§5) Retinoids were assayed for their ability to bind members of the family of the retinoic acid receptors, the RARs, as follows:
(§6) COS-1 cells were transfected by DEAE-dextran with pSG5 expression vectors containing cDNAs for mouse RARs α, β, or γ or RXRs α, β, or γ. […] Nucleosol or cytosol fractions were prepared as described in Nervi, C., et al (30) and Nervi, C., et al (31) and stored at -70° C. until use. Aliquots of nucleosol or cytosol were incubated in nuclei lysis buffer as described in Nervi, C., et al (30) with tritiated ligands for 4 h at 4° C. […] For competitive binding assays, the incubations were performed with increasing concentrations of unlabeled competing ligand and a fixed concentration of the radioligand (10 nM ^3 H-retinoic acid). In saturation kinetic studies, incubations were performed in the presence of increasing concentrations of the indicated radioligand. For all binding assays, bound was separated from free radioactivity as described in Levin, A. A., et al (29).

A value given as a limit tells only on which side of the number the result lay.

We go through three compounds from patent US5962534A, “Regulating gene expression using retinoids with CH2 OH or related groups at the side chain terminal position” (Cornell Research Foundation, Inc., priority 1997, dated 1999).

Method for RAR-α: as §5, §6
Method for RAR-β: as §5, §6
Method for RAR-γ: as §5, §6

For `CC1=C(/C=C/C(C)=C/C=C/C(C)=C/C(=O)O)C(C)(C)CCC1` [RA, all-trans-retinoic acid], in [1], the EC50 is 0.009 µM. Also, the “binding to α-, β- and γ-retinoic acid receptors” value in the data set on RARs α, β, or γ [2] is “binds equally well to α-, β-, and γ-retinoic acid receptors”. The “half-life in differentiated retinoic acid-treated F9 stem cells” value in the data set with F9 stem cells [3] (differentiated, enzyme induced) is less than 3 h. In addition, the “half-life in F9 stem cells” value with F9 stem cells [3] (undifferentiated) was 3 h.
Consider `CC1=C(/C=C/C(C)=C/C=C/C(C)=C/CO)C(C)(C)CCC1O` (centres unmarked) [4-OH retinol], for which the psoriatic arthritis symptoms entry in the data set with psoriatic arthritis is “fewer tender joints and a decreased duration of morning stiffness”. The IC50 on RAR-γ was 3.4 ± 1.6 µM; at RAR-α, 5 ± 1.4 µM; on RAR-β, 3.8 ± 1.1 µM. Moreover, the response in data set [1] was half-maximal at 0.076 µM (EC50). Also, the “wrinkles, smoothness, pigmented areas of skin” value in data set [4] was “fewer and reduced depth of wrinkles, increased smoothness of the skin, and a reduction in pigmented areas of the skin”. In data set [5], the “tumor burden, head and neck cancer” value was “reduced tumor burden”. Moreover, the “survival beyond the median” value in [5] (and/or reduced tumor burden) is 4-6 months. For the same compound, the fold induction at 1 µM with Hoxa-1 was determined as 9; with laminin B1, 3. The “tumor burden, breast cancer” value with breast cancer was “reduced tumor burden”. For the same compound, the “other metabolites of 4-hydroxyretinol” value with F9 stem cells [6] is given as “No other metabolite”. Further, the metabolised at 15 h, 0.05 µM in [7] is approximately 20%. Besides, the “mean reduction in lesion counts” value in the data set on deep (cystic) acne (end of 3 to 6 months) is “greater than 85%”. Besides, the acne clearance result in the data set on deep (cystic) acne (after discontinuation) is recorded as “in some cases complete clearance occurs”. The “inhibition of binding of all-trans-3H-retinoic acid to CRABP I” value in [8] is “unable to inhibit”. In addition, in the data set on RXRs α, β, or γ (data not shown), the “inhibition of 3H-9-cis retinoic acid binding to RXRs” value is recorded as “Neither the 4-hydroxyretinol nor the 4-oxo-retinol inhibited”.
Regarding `CC1=C(/C=C/C(C)=C/C=C/C(C)=C/CO)C(C)(C)CCC1` [retinol, reference compound], the EC50 in data set [1] was more than 3 µM. Moreover, the “inhibition of all-trans-3H-retinoic acid binding to any of the RARs” value in the data set with RARs α, β, or γ [9] is “no apparent inhibition”. For the same compound, the fold induction at 1 µM in the data set with Hoxa-1 stood at 4; in the data set on laminin B1, 2. Also, the “inhibition of 3H-9-cis retinoic acid binding to the RXRs” value in the data set with RXRs α, β, or γ (concentrations up to 50,000 nM) is “no apparent inhibition”.
